Data published in paper PMC5624946, “Extrapyramidal side effects of antipsychotics are linked to their association kinetics at dopamine D2 receptors” (Nature Communications, 2017).
Structures can show the parent of a compound that is named as a salt. Where two headings read alike, the source gives them in different places.

What was measured:
human D2L receptors [1] = biological target: T1, human D2L receptors (Homo sapiens, UniProt P14416); test: Competition kinetic binding with PPHT-red tracer (TR-FRET, Motulsky-Mahan); conditions: for t 1/2: dissociation half-life from k off
[2] = clinical; cited from earlier work
human D2L receptors [3] = biological target: T1, human D2L receptors
human D2L receptors [4] = biological target: T1, human D2L receptors; test: Equilibrium competition binding with PPHT-red (TR-FRET)
human D2L receptors [5] = biological target: T1, human D2L receptors; test: biochemical
D2R = D2R (Homo sapiens, UniProt P14416); test: biochemical
[6] = cited from earlier work
[7] = 37 °C, 100 μM GppNHp, 12.5 nM PPHT-red tracer, CHO-D2L membranes, mean ± s.e.m., four experiments

T1 sequence (P14416 whole entry): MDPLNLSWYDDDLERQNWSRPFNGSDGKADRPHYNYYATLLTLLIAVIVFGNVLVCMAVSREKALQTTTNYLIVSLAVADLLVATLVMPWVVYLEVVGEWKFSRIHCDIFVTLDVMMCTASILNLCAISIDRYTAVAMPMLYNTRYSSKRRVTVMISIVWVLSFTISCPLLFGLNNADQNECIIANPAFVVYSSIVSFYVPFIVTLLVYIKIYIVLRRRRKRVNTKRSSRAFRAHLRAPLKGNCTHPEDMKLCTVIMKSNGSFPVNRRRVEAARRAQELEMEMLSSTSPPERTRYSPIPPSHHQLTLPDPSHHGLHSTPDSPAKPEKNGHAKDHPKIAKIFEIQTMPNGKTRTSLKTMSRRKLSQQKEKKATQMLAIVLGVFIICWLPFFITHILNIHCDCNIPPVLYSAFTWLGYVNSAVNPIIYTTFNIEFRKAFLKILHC
Chain of D2R (P14416 whole entry): as above

Row | Compound | t 1/2 (human D2L receptors [1]) | Ki (human D2L receptors [4]) | Kd (human D2L receptors [5]) | further results
1 | OCCN1CCN(CCCN2c3ccccc3Sc3ccc(C(F)(F)F)cc32)CC1 [Fluphenazine, fluphenazine dihydrochloride] | 17.33 min | – | – | –
2 | O=C1NCCN1CCN1CCC(c2cn(-c3ccc(F)cc3)c3ccc(Cl)cc23)CC1 [Sertindole, sertindole] | 1.17 min | – | – | –
3 | O=C1CCc2ccc(OCCCCN3CCN(c4cccc(Cl)c4Cl)CC3)cc2N1 [aripiprazole] | – | – | – | propensity to cause prolactin release, in words [2]: very little propensity to cause prolactin release
4 | CN1CC2c3ccccc3Oc3ccc(Cl)cc3C2C1 (centres unmarked) [Asenapine, asenapine maleate] | 0.75 min | – | – | –
5 | O=C(CCCN1CCC2(CC1)C(=O)NCN2c1ccccc1)c1ccc(F)cc1 [Spiperone, spiperone] | 18.24 min | – | – | –
6 | OCCN1CCN(CCC=C2c3ccccc3Sc3ccc(C(F)(F)F)cc32)CC1 [Flupenthixol, flupenthixol dihydrochloride] | – | 0.209 nM | 0.214 nM | t 1/2 (human D2L receptors [3]): 9.63 min; k off (human D2L receptors [1]): 0.0012 ± 0.000167 s⁻¹; k on (human D2L receptors [1]): 3.50 ± 0.72 × 10^8 M^−1 min^−1
7 | (+)-butaclamol [(+)Butaclamol] | – | – | – | t 1/2 (human D2L receptors [3]): 26.65 min
8 | OCCN1CCN(CCCN2c3ccccc3Sc3ccc(Cl)cc32)CC1 [Perphenazine, perphenazine] | 3.01 min | 0.295 nM | 0.186 nM | k off (human D2L receptors [1]; [7]): 0.00383 ± 0.00033 s⁻¹; k on (human D2L receptors [1]; [7]): 1.29 ± 0.17 × 10^9 M^−1 min^−1
9 | CCc1c(C)[nH]c2c1C(=O)C(CN1CCOCC1)CC2 (centres unmarked) [Molindone, molindone hydrochloride] | 0.41 min | 26.9 nM | 20.4 nM | k off (human D2L receptors [1]; [7]): 0.0282 ± 0.0075 s⁻¹; k on (human D2L receptors [1]; [7]): 8.69 ± 2.6 × 10^7 M^−1 min^−1; k off (D2R): 0.0282 s⁻¹
10 | OCCOCCN1CCN(C2=Nc3ccccc3Sc3ccccc32)CC1 [Quetiapine, quetiapine hemifumarate] | – | – | – | plasma half-life, in words [6]: short
11 | CN1CCN(C2=Nc3ccccc3Oc3ccc(Cl)cc32)CC1 [Loxapine, loxapine succinate] | 0.32 min | – | – | –
12 | CCN1CCC[C@H]1CNC(=O)c1c(O)c(Cl)cc(Cl)c1OC [Raclopride, raclopride] | 1.31 min | – | – | –
13 | Cc1nc2n(c(=O)c1CCN1CCC(c3noc4cc(F)ccc34)CC1)CCCC2O (centres unmarked) [Paliperidone, paliperidone] | 1.58 min | 2.88 nM | 2.51 nM | k off (human D2L receptors [1]; [7]): 0.00733 ± 0.00067 s⁻¹; k on (human D2L receptors [1]; [7]): 1.80 ± 0.29 × 10^8 M^−1 min^−1; k off (D2R): 0.0075 s⁻¹
14 | CNc1cc(OC)c(C(=O)NC2CCN(Cc3ccccc3)C2C)cc1Cl (centres unmarked) [Nemonapride, nemonapride] | 38.50 min | – | – | –
15 | CN(C)CCOC1=Cc2ccccc2Sc2ccc(Cl)cc21 [Zotepine, zotepine] | 0.49 min | – | – | –
16 | O=C(CCCN1CC=C(n2c(=O)[nH]c3ccccc32)CC1)c1ccc(F)cc1 [Droperidol, droperidol] | 1.82 min | 0.102 nM | 0.195 nM | k off (human D2L receptors [1]; [7]): 0.00633 ± 0.00067 s⁻¹; k on (human D2L receptors [1]; [7]): 2.01 ± 0.38 × 10^9 M^−1 min^−1
17 | O=C1Cc2cc(CCN3CCN(c4nsc5ccccc45)CC3)c(Cl)cc2N1 [Ziprasidone, ziprasidone hydrochloride monohydrate] | 0.65 min | – | – | –
18 | CN1CCN(CCCN2c3ccccc3Sc3ccc(C(F)(F)F)cc32)CC1 [Trifluoperazine, trifluoperazine dihydrochloride] | 3.15 min | 0.331 nM | 0.204 nM | k off (human D2L receptors [3]): 0.00367 ± 0.00017 s⁻¹; k on (human D2L receptors [3]): 1.10 ± 0.20 × 10^9 M^−1 min^−1
